Measured values reported in ChEMBL document CHEMBL1201862, “PubChem BioAssay data set” (2004).
The source made the active and inactive calls.

How the values were obtained:
[1] = target: Sphingosine 1-phosphate receptor 4 (Homo sapiens, UniProt O95977); assay: Fluorescence dose response cell-based high throughput screening assay for agonists of the Sphingosine 1-Phosphate Receptor 4 (S1P4). [Related pubchem assays: 1509 (Primary screen.), 1523 (Confirmation screen in triplicates.)]; assay type: functional
[2] = target: Sphingosine 1-phosphate receptor 1 (Homo sapiens, UniProt P21453); assay: Fluorescence-based counterscreen assay for S1P4 agonists: Cell-based dose response high throughput screening assay to identify agonists of the Sphingosine 1-Phosphate Receptor 1 (S1P1). [Related pubchem assays (depositor defined):AID1509, AID1523, AID1801, AID463107, AID463118, AID463119, AID463122, AID463123, AID463129, AID463225, AID504400, AID504460]; assay type: functional
[3] = target: T1, E3 ubiquitin-protein ligase XIAP (Homo sapiens, UniProt P98170); assay: SAR analysis of Antagonists of XIAP-Bir3 domain of IAP-family anti-apoptotic proteins. [Related pubchem assays (depositor defined):AID1018, AID1449, AID1513, AID1514, AID1638]
[4] = target: T1, E3 ubiquitin-protein ligase XIAP; assay: SAR analysis of Antagonists of IAP-family anti-apoptotic proteins. [Related pubchem assays (depositor defined):AID1018, AID1449, AID1513, AID1514, AID1638]
Cannabinoid receptor 1 [5] = target: T2, Cannabinoid receptor 1 (Homo sapiens, UniProt P21554); assay: SAR analysis of antagonists of the Cannabinoid Receptor 1 using an Image-Based Assay - Set 2. [Related pubchem assays (depositor defined):AID2013, AID2026]; assay type: functional
[6] = target: T3, G-protein coupled receptor 55 (Homo sapiens, UniProt Q9Y2T6); assay: GPR55 antagonist potency of analogs, SAR follow-up, imaging, U2OS, beta-arrestin-GFP, LPI agonist, set 2 (AID 2820); assay type: functional
Cannabinoid receptor 1 [7] = target: T2, Cannabinoid receptor 1; assay: SAR analysis of agonists of the Cannabinoid Receptor 1 using an Image-Based Assay - Set 2. [Related pubchem assays (depositor defined):AID2013, AID2026]; assay type: functional
[8] = target: T4, G-protein coupled receptor 35 (Homo sapiens, UniProt Q9HC97); assay: SAR analysis of Antagonists of the GPR35 Receptor using an Image-Based Assay - Set 3. [Related pubchem assays (depositor defined):AID2013, AID2026]; assay type: functional
Cannabinoid receptor 2 [9] = target: T5, Cannabinoid receptor 2 (Homo sapiens, UniProt P34972); assay: SAR analysis of agonists of the Cannabinoid Receptor 2 using an Image-Based Assay. [Related pubchem assays (depositor defined):AID2013, AID2026]; assay type: functional
Cannabinoid receptor 2 [10] = target: T5, Cannabinoid receptor 2; assay: SAR analysis of antagonists of the Cannabinoid Receptor 2 using an Image-Based Assay. [Related pubchem assays (depositor defined):AID2013, AID2026]; assay type: functional
[11] = target: T4, G-protein coupled receptor 35; assay: SAR analysis of Agonists of the GPR35 Receptor using an Image-Based Assay - Set 2. [Related pubchem assays (depositor defined):AID2013, AID2026]; assay type: functional
[12] = target: T3, G-protein coupled receptor 55; assay: GPR55 antagonists blocking LPI-driven arrestin recruitment, primary screen, imaging, U2OS, beta-arrestin-GFP, LPI agonist (AID 2013); assay type: functional;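 note: antagonist potency measured as reduced agonist-driven arrestin aggregation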
Coagulation factor XII = target: T6, Coagulation factor XII (Homo sapiens, UniProt P00748); assay: Factor XIIa Dose Response Confirmation from Single Well HTS. [Related pubchem assays (depositor defined):AID701]; assay type: functional
T6 sequence (P00748 whole entry): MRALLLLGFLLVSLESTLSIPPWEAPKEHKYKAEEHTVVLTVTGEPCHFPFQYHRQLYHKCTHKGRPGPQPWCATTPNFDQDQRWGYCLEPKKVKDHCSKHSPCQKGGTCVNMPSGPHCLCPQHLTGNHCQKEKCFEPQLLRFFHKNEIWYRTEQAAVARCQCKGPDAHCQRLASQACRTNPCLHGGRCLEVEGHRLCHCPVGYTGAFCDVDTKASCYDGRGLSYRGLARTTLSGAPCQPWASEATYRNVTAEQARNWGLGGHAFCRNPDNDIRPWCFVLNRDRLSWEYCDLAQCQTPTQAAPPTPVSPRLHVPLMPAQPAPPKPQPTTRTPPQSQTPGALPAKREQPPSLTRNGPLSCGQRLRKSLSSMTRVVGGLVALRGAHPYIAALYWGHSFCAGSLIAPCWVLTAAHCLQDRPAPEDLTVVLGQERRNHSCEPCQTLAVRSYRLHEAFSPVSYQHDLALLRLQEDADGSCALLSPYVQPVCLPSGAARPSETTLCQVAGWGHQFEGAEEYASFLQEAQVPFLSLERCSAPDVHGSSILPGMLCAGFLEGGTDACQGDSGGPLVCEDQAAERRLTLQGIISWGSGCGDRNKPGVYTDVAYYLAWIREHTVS

Estrogen receptor = target: T7, Estrogen receptor (Homo sapiens, UniProt P03372);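 note: potency for inhibiting coactivator peptide recruitment to the receptor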
T7 sequence (P03372 whole entry): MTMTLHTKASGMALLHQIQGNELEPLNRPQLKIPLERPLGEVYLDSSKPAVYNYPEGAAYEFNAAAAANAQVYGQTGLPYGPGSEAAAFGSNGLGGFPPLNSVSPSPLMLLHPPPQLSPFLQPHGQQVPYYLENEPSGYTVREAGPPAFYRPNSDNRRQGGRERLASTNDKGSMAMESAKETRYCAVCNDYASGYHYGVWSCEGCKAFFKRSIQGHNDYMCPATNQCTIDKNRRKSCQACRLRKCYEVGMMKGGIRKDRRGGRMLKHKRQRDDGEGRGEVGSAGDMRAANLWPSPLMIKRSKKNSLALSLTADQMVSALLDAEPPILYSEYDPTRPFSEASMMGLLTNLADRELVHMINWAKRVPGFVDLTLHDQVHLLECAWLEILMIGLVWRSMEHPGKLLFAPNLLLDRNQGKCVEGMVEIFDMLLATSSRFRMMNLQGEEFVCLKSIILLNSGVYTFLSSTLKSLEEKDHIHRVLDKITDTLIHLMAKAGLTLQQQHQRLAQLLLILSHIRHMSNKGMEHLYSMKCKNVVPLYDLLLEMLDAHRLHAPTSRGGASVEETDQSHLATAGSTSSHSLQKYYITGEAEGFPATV

[13] = target: T8, Carboxy-terminal domain RNA polymerase II polypeptide A small phosphatase 1 (Homo sapiens, UniProt Q9GZU7); assay: inhibitors of CTDSP1, concentration-response testing, biochemical assay, absorbance-based, actives from ultra-high-throughput screening (AID 540297); assay type: functional
T8 sequence (Q9GZU7 whole entry): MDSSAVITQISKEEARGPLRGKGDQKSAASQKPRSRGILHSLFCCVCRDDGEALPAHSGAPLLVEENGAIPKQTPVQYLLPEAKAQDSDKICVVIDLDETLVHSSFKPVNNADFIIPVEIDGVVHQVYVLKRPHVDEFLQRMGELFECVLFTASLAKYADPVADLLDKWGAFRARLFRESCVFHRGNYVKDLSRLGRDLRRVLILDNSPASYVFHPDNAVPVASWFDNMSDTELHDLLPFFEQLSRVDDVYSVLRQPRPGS

[14] = cytotoxicity toward NIH3T3 fibroblasts, dose response, counter-screen, cell-based, ATP luminescence, mouse fibroblasts (AID 2010); assay type: functional;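 note: cells exposed to compound for about 90 hours before reading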
[15] = growth suppression of PTEN-null colon cells, dose response, cell-based, HCT116 PTEN knockout (AID 1047); assay type: functional;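 note: HCT116 colon tumor cells with PTEN knocked out; cells exposed to compound for 60 hours before readout; potency for loss of cell viability measured by luminescence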
[16] = growth suppression of beta-catenin-knockout colon cells, dose response, cell-based, HCT116, human colon tumor (AID 1045); assay type: functional;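 note: HCT116 colon tumor cells with beta catenin knocked out; cells exposed to compound for 60 hours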
[17] = inhibitors of intracellular T. cruzi replication, confirmation, NIH3T3 host cells, beta-gal luminescence (AID 2044); assay type: functional, cell-based;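 note: intracellular parasites grown in NIH/3T3 mouse fibroblasts as host cells; luminescent beta-galactosidase reporter signal from transgenic T. cruzi replicating inside host cells; inhibitors lower the luminescence signal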
[18] = target: T9, Kappa-type opioid receptor (Homo sapiens, UniProt P41145); assay: SAR analysis of small molecule antagonists of the kappa opioid receptor via a luminescent beta-arrestin assay - Set 5. [Related pubchem assays (depositor defined):AID1778, AID1785]; assay type: functional
[19] = target: T9, Kappa-type opioid receptor; assay: SAR analysis of small molecule antagonists of the kappa opioid receptor via a luminescent beta-arrestin assay - Set 4. [Related pubchem assays (depositor defined):AID1777, AID1778, AID1785, AID1786, AID1966, AID2133, AID2136, AID2285]; assay type: functional
[20] = target: T4, G-protein coupled receptor 35; assay: SAR analysis of Antagonists of the GPR35 Receptor using an Image-Based Assay - Set 4. [Related pubchem assays (depositor defined):[…]]; assay type: functional
[21] = target: T4, G-protein coupled receptor 35; assay: SAR analysis of Agonists of the GPR35 Receptor using an Image-Based Assay - Set 3. [Related pubchem assays (depositor defined):AID1961, AID1965]; assay type: functional
Cannabinoid receptor 2 [22] = target: T5, Cannabinoid receptor 2; assay: SAR analysis of agonists of the Cannabinoid Receptor 2 using an Image-Based Assay - Set 2. [Related pubchem assays (depositor defined):AID1961, AID1965]; assay type: functional
Cannabinoid receptor 1 [23] = target: T2, Cannabinoid receptor 1; assay: SAR analysis of antagonists of the Cannabinoid Receptor 1 using an Image-Based Assay - Set 3. [Related pubchem assays (depositor defined):AID1961, AID1965]; assay type: functional
[24] = target: T3, G-protein coupled receptor 55; assay: SAR analysis of selective Agonists of GPR55 using an Image-Based Assay - Set 2. [Related pubchem assays (depositor defined):AID1961, AID1965]; assay type: functional
Cannabinoid receptor 2 [25] = target: T5, Cannabinoid receptor 2; assay: SAR analysis of antagonists of the Cannabinoid Receptor 2 using an Image-Based Assay - Set 2. [Related pubchem assays (depositor defined):AID1961, AID1965]; assay type: functional
Cannabinoid receptor 1 [26] = target: T2, Cannabinoid receptor 1; assay: SAR analysis of agonists of the Cannabinoid Receptor 1 using an Image-Based Assay - Set 3. [Related pubchem assays (depositor defined):AID1961, AID1965]; assay type: functional
Mu-type opioid receptor = Mu-type opioid receptor (Homo sapiens, UniProt P35372); assay: SAR Analysis of Agonists of the MOR Receptor using an Image-Based Assay - Set 3. [Related pubchem assays (depositor defined):AID1777, AID1785, AID1786, AID1966, AID2133, AID2136, AID2284, AID2285, AID2352]; assay type: functional
[27] = target: Delta-type opioid receptor (Homo sapiens, UniProt P41143); assay: SAR Analysis of Agonists of the DOR Receptor using an Image-Based Assay - Set 3. [Related pubchem assays (depositor defined):AID1777, AID1786]; assay type: functional
[28] = target: T9, Kappa-type opioid receptor; assay: KOR agonist analogs, arrestin-GFP redistribution, SAR follow-up, imaging, image-based, set 3 (AID 488833); assay type: functional
[29] = target: T9, Kappa-type opioid receptor; assay: SAR analysis of small molecule agonists of the kappa opioid receptor via a luminescent beta-arrestin assay - Set 3. [Related pubchem assays (depositor defined):AID1777, AID1785, AID1786, AID1966, AID2133, AID2136, AID2284, AID2500]; assay type: functional
[30] = target: DNA damage-inducible transcript 3 protein (Mus musculus, UniProt P35639); assay type: functional, Cricetulus griseus
[31] = Luminescence Cell-Based Dose Retest to Confirm Inhibitors of Cancer Stem Cells. [Related pubchem assays (depositor defined):AID2717, AID2721]; assay type: functional; conditions: Homo sapiens
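Throughout, for AC50: cells exposed to compound for roughly 70 hours or longer before luminescence read.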

T3 sequence (Q9Y2T6 whole entry): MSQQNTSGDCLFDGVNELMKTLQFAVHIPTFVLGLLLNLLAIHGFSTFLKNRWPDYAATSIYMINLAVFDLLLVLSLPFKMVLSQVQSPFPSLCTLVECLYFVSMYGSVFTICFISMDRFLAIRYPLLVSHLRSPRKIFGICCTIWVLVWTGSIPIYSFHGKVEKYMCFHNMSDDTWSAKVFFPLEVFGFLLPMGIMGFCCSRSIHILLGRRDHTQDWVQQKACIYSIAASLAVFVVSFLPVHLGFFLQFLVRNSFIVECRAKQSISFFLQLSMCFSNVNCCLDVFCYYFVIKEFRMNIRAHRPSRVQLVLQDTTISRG
T9 sequence (P41145 whole entry): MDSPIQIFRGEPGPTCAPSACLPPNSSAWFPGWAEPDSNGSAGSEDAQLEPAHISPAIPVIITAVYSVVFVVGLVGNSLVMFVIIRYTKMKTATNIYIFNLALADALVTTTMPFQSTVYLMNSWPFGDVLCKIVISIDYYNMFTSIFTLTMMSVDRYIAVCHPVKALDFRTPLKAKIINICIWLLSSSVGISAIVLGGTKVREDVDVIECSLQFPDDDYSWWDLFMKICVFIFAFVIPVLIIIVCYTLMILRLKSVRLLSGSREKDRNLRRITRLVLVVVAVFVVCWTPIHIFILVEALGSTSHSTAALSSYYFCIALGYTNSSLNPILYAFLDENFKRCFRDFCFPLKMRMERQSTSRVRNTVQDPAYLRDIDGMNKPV
T2 sequence (P21554 whole entry): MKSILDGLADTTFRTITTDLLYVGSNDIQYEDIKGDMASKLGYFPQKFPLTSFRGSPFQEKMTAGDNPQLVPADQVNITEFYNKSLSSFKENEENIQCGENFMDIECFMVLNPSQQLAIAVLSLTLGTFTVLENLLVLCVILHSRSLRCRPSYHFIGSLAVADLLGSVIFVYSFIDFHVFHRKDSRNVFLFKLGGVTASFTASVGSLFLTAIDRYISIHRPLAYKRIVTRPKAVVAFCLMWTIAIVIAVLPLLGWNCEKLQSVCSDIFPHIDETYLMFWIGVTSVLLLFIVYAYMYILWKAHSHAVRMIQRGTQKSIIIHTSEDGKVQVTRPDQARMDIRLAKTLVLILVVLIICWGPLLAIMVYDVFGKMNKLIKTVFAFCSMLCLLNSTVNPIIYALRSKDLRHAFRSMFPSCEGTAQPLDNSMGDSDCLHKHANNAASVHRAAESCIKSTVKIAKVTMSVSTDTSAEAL
T5 sequence (P34972 whole entry): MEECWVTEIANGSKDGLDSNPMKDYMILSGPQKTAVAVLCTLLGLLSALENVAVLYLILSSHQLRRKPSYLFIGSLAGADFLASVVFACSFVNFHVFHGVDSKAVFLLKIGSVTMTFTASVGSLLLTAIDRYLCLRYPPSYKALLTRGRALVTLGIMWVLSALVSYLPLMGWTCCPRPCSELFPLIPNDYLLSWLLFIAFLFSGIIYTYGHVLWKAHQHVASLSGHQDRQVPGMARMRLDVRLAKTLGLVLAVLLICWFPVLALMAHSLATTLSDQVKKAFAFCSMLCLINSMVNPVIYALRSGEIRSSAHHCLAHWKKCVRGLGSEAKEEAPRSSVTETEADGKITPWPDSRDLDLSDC
T4 sequence (Q9HC97 whole entry): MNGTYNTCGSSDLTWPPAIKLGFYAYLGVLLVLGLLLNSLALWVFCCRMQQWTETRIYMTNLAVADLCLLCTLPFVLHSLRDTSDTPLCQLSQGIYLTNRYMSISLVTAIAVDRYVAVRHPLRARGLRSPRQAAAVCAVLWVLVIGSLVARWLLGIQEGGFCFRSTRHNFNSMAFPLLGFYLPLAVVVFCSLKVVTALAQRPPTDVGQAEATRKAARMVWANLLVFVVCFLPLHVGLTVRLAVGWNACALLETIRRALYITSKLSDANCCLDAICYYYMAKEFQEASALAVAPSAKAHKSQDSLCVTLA
T1 sequence (P98170 whole entry, the tested form may be a part): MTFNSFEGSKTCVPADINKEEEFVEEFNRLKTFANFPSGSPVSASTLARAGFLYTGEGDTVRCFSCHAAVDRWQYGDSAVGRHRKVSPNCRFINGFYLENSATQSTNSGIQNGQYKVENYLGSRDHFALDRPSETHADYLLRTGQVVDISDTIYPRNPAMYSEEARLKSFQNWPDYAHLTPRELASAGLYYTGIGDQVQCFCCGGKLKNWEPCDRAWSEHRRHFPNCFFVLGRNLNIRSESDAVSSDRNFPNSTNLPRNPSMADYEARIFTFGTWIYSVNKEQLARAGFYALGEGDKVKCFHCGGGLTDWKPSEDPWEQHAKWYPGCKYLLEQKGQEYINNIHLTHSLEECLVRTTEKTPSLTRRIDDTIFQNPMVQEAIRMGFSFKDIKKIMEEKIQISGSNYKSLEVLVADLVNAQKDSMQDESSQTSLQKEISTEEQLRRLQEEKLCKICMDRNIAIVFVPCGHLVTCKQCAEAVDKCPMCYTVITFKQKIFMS
DNA damage-inducible transcript 3 protein, sequence (P35639 whole entry): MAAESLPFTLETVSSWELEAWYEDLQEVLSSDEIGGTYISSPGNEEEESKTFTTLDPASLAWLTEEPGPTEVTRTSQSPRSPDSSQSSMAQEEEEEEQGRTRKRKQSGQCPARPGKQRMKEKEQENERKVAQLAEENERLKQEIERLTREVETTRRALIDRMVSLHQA
Mu-type opioid receptor, sequence (P35372 whole entry): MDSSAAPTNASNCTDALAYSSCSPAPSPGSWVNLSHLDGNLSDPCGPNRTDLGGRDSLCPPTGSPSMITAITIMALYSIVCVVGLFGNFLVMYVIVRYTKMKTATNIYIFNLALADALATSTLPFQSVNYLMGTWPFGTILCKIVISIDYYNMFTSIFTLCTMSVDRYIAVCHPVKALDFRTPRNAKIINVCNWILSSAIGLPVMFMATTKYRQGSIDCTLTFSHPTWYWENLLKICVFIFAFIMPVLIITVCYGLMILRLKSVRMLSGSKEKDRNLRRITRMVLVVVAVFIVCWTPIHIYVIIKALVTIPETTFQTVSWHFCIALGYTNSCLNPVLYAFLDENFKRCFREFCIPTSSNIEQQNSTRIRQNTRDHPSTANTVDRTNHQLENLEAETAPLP
Sphingosine 1-phosphate receptor 1, sequence (P21453 whole entry, the tested form may be a part): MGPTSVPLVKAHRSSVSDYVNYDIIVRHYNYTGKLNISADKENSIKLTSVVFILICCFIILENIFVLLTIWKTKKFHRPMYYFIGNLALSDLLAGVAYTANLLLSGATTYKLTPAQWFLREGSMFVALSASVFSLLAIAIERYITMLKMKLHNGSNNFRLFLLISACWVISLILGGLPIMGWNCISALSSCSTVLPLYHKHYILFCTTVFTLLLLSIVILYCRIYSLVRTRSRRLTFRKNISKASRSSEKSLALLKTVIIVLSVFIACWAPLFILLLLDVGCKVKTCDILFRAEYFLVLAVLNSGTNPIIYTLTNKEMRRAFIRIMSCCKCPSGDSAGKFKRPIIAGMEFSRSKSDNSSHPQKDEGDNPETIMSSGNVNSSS
Sphingosine 1-phosphate receptor 4, sequence (O95977 whole entry): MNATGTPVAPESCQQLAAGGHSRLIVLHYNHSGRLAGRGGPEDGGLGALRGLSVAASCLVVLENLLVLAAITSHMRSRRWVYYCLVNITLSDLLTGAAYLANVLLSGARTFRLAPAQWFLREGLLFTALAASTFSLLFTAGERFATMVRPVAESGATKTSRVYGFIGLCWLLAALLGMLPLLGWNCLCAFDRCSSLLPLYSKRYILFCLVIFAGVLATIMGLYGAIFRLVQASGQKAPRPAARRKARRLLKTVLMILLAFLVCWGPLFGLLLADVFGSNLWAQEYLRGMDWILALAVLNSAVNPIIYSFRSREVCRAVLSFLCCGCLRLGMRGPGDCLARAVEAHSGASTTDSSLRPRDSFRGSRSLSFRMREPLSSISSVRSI
Delta-type opioid receptor, sequence (P41143 whole entry): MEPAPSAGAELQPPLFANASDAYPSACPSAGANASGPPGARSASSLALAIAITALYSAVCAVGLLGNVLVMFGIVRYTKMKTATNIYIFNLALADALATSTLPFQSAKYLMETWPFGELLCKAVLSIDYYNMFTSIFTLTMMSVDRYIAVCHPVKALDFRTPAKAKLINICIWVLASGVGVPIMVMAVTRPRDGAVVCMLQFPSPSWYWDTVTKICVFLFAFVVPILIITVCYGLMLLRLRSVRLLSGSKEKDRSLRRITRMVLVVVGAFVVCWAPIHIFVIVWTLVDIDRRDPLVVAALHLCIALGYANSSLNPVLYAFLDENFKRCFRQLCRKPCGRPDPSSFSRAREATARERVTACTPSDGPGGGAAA

## CC(C)c1cc(C(=O)OCC(=O)NC(=O)NCc2ccco2)c(O)c(C(C)C)c1
[1]
  EC50: > 49.8 µM (not active)
[2]
  EC50: > 49.8 µM (inactive)

## CN[C@@H](C)C(=O)N[C@H](C(=O)N1CCC[C@H]1C(=O)Nc1ccc2ncccc2c1)C(C)C
[3]
  IC50: 94.9 µM (active)
[4]
  IC50: 11.4 µM (active)

## Cc1cccc(-c2cc(C(=O)Nc3sc(C)c(C)c3C(N)=O)c3ccccc3n2)c1
Cannabinoid receptor 1 [5]
  IC50: 24.1 µM (inactive)
[6]
  IC50: 1.44 µM (active)
Cannabinoid receptor 1 [7]
  EC50: > 32 µM (inactive)
[8]
  IC50: > 32 µM (inactive)
Cannabinoid receptor 2 [9]
  EC50: > 32 µM (inactive)
Cannabinoid receptor 2 [10]
  IC50: > 32 µM (inactive)
[11]
  EC50: > 32 µM (inactive)
[12]
  IC50: 0.869 µM (active)

## Cc1ccc2[nH]c(/C(C#N)=C\c3ccc(N4CCCCC4)c([N+](=O)[O-])c3)nc2c1
Coagulation factor XII
  IC50: 1.02 µM (active)
Estrogen receptor
  IC50: 4.23 µM (active)
[13]
  IC50: 2.45 µM (active)
[14]
  EC50: > 60 µM (inconclusive)
[15]
  EC50: 19.4 µM (active)
[16]
  EC50: 22 µM (active)
[17]
  EC50: 2 µM (active)

## Cc1ccc(S(=O)(=O)NCc2cccc(C(=O)NCCN(Cc3ccccc3)C(C)C)c2)cc1
[18]
  IC50: > 20 µM (inactive)
[19]
  IC50: > 20 µM (inactive)

## CCN(CC)S(=O)(=O)c1ccc(N2CCC(C)CC2)c(C(=O)N2CCN(c3ccccc3)CC2)c1
[20]
  IC50: > 32 µM (inactive)
[21]
  EC50: > 32 µM (inactive)
Cannabinoid receptor 2 [22]
  EC50: > 32 µM (inactive)
Cannabinoid receptor 1 [23]
  IC50: > 32 µM (inactive)
[24]
  EC50: > 32 µM (inactive)
Cannabinoid receptor 2 [25]
  IC50: > 32 µM (inactive)
Cannabinoid receptor 1 [26]
  EC50: > 32 µM (inactive)

## Fc1ccc(CSc2nnc(-c3ccccn3)n2Cc2cccs2)c(F)c1F
Mu-type opioid receptor
  EC50: > 32 µM (inactive)
[27]
  EC50: > 32 µM (inactive)
[28]
  EC50: 1.73 µM (active)
[29]
  EC50: 3.04 µM (active)

## Cc1ccc(COc2ccc(Br)cc2/C=N/O)cc1
[30]
  Absolute IC50 (CHOP): 10 µM
[31]
  AC50: 6.11 µM (active)
